Calls of active or inactive are those of the source.
Columns and labels:
[1] = molecular target: E3 ubiquitin-protein ligase Mdm2 (Homo sapiens, UniProt Q00987); assay: enhancers of MDM2-luciferase reporter signal, concentration-effect titration, project on inhibitors of MDM2 ubiquitin ligase, cellular assay, luminescent readout, 384-well plate format (AID 1394); format: functional;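 also: MDM2 E3 inhibitors raise luminescence so EC50 is for signal enhancement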
[2] = molecular target: T1, Microphthalmia-associated transcription factor (Homo sapiens, UniProt O75030); assay: TRPM1 promoter luciferase signal decrease, dose response, MITF inhibitor project, cell-based, SK-MEL-5, cherry-picked, set 3 (AID 493073); format: functional
T1 sequence (O75030 whole entry): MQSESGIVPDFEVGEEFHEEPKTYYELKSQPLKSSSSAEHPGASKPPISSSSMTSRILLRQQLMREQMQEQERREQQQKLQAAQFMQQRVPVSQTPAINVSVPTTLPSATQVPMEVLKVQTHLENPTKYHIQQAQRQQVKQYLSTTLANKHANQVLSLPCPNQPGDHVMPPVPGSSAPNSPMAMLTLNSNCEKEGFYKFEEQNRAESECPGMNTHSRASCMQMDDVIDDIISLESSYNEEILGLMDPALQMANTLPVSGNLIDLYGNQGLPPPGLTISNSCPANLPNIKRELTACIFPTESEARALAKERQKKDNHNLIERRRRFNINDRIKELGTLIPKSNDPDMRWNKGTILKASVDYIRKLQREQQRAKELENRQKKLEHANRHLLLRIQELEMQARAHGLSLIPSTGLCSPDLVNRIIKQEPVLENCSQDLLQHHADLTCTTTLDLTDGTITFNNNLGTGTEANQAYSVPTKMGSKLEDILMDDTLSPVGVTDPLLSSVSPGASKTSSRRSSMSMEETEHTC

[3] = molecular target: NS3 (Hepatitis C virus, UniProt A3EZJ3); assay: PubChem AID 2173; parameters: species or system Hepacivirus hominis
[4] = molecular target: Solute carrier family 12 member 2/member 5 (Homo sapiens, UniProt P55011+Q9H2X9); assay: KCC2 and NKCC1 inhibition by rubidium flux, cell-based, NKCC1 counter-screen (AID 1734); format: functional, HEK293
[5] = NIH-3T3 fibroblast cytotoxicity, dose response, cytotoxicity control, cell-based, fluorescence, Alamar Blue, secondary assay (AID 2327); format: functional;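 also: NIH-3T3 mouse fibroblasts cultured with fluconazole at 8 µg/mL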
[6] = C. albicans growth with fluconazole, confirmation, fluorescence, retest (AID 2467); format: functional, cell-based
[7] = molecular target: T2, Mannose-6-phosphate isomerase (Homo sapiens, UniProt P34949); assay: human PMI inhibitors, high substrate, primary screen, biochemical, fluorescence intensity, high mannose 6-phosphate (AID 1220)
T2 sequence (P34949 whole entry): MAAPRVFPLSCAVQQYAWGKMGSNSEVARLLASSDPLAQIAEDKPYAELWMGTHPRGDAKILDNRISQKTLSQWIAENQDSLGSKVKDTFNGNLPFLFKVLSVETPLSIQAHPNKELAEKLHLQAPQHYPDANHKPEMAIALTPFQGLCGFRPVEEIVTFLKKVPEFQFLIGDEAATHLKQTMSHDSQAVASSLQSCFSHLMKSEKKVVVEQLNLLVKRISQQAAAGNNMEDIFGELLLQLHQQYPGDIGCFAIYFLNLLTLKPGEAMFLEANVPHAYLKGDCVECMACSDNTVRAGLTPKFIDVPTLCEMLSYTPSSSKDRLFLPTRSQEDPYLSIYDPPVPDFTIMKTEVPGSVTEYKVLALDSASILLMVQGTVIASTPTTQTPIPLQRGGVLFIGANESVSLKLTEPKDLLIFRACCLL

[8] = molecular target: DNA dC->dU-editing enzyme APOBEC-3G (Homo sapiens, UniProt Q9HC16); assay: Dose Response confirmation of small molecule APOBEC3G DNA Deaminase Inhibitors via a fluorescence-based single-stranded DNA deaminase assay. [Related pubchem assays (depositor defined):AID493012, AID493028]; format: functional
[9] = molecular target: Genome polyprotein (Hepatitis C virus, UniProt Q2Q167); assay: HCV core protein dimerization inhibitors, dose response, biochemical, TR-FRET (AID 2159); parameters: species or system Hepacivirus hominis;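 also: blocks dimerization of HCV core protein measured by TR-FRET between tagged core106 pairs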
[10] = molecular target: T3, Estrogen receptor (Homo sapiens, UniProt P03372);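 also: potency for inhibiting coactivator peptide recruitment to the receptor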
T3 sequence (P03372 whole entry): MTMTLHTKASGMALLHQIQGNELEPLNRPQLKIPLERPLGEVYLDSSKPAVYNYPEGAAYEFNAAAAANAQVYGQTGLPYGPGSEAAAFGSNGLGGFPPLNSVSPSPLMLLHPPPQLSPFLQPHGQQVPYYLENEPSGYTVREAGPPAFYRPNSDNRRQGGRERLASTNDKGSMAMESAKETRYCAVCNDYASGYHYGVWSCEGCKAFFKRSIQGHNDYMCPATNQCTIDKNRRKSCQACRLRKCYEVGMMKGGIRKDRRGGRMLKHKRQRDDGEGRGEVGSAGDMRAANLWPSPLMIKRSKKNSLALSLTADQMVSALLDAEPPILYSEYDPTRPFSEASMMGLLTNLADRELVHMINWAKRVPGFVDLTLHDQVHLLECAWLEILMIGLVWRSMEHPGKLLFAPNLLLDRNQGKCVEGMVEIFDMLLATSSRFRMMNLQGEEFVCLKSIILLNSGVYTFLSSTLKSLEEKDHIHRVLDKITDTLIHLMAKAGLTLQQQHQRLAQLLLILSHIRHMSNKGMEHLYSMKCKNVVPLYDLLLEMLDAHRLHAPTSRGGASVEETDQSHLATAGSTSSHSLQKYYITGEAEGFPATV

[11] = molecular target: Dual specificity tyrosine-phosphorylation-regulated kinase 1A (Rattus norvegicus, UniProt Q63470); format: biochemical, Homo sapiens
[12] = molecular target: T4, Carboxy-terminal domain RNA polymerase II polypeptide A small phosphatase 1 (Homo sapiens, UniProt Q9GZU7); assay: inhibitors of CTDSP1, concentration-response testing, biochemical assay, absorbance-based, actives from ultra-high-throughput screening (AID 540297); format: functional
T4 sequence (Q9GZU7 whole entry): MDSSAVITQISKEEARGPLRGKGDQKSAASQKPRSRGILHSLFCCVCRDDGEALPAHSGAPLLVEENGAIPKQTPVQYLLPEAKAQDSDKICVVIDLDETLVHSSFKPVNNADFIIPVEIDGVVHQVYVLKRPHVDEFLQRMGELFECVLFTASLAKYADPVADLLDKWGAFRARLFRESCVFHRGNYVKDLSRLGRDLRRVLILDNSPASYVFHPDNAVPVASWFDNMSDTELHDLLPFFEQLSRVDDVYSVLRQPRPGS

[13] = molecular target: Heat shock protein HSP90 (Homo sapiens, UniProt P07900+P08238); assay: tumor Hsp90 inhibitor potency, dose response (AID 712); format: functional
[14] = molecular target: Large T antigen (Simian virus 40, UniProt P03070); format: functional, Betapolyomavirus macacae;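 also: Confirmatory-stage PubChem screen for compounds that inhibit SV40 T antigen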
[15] = molecular target: T5, Replicative DNA helicase DnaB (Mycobacterium tuberculosis, UniProt P9WMR3); assay: DnaB intein splicing inhibitors, dose response, biochemical, cell-free fluorescence (AID 449749); format: functional
T5 sequence (P9WMR3 whole entry): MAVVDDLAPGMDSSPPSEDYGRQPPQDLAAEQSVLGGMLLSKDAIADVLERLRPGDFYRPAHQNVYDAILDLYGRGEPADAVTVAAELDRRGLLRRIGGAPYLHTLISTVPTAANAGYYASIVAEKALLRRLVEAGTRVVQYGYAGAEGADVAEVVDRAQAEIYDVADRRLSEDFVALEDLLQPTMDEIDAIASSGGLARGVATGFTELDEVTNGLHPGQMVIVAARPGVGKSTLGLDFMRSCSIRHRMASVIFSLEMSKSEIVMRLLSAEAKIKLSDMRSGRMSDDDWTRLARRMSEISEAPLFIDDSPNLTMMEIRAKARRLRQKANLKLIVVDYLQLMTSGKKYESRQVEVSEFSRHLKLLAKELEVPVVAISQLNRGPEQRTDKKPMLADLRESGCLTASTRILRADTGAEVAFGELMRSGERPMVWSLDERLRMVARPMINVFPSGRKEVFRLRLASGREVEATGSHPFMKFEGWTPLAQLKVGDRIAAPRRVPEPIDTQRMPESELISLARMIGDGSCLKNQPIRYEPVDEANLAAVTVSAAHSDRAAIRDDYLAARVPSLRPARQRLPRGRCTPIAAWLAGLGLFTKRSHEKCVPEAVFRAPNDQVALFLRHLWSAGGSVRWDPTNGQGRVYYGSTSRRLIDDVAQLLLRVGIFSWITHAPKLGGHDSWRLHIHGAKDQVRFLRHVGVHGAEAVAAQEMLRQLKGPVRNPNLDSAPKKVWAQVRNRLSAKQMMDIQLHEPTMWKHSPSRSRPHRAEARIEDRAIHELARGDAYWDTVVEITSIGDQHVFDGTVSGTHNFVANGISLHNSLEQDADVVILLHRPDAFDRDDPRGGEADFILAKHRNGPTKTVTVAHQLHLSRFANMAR

[16] = molecular target: T6, Protein RecA (Mycobacterium tuberculosis, UniProt P9WHJ3); assay: Fluorescence Cell-Free Homogeneous Dose Retest to Identify Inhibitors of RecA-Intein Splicing Activity. [Related pubchem assays (depositor defined):AID2097, AID2223, AID489010, AID492950]; format: functional
T6 sequence (P9WHJ3 whole entry): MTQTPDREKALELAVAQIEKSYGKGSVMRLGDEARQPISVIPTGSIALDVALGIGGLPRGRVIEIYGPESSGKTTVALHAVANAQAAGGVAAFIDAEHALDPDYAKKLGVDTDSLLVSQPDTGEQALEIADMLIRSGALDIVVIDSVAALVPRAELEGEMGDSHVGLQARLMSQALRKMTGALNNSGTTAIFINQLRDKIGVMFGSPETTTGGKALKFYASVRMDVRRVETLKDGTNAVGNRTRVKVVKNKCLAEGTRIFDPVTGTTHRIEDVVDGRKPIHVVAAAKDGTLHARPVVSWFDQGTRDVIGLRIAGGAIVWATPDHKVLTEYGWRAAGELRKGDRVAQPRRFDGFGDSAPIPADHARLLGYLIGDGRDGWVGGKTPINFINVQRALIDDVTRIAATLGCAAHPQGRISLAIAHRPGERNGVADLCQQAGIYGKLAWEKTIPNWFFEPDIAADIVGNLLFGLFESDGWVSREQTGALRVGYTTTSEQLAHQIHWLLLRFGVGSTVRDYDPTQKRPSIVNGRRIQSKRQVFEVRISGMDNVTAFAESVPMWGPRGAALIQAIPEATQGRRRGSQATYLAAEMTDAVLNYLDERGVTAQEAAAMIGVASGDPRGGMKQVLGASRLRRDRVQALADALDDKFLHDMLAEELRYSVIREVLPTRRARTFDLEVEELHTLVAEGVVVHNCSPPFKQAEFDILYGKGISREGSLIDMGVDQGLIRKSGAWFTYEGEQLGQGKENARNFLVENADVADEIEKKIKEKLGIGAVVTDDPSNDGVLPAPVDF

[17] = molecular target: T7, Protein Tat (Human immunodeficiency virus type 1 group M subtype B (isolate HXB2)(HIV-1), UniProt P04608); format: functional;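 also: tat binding to TAR RNA read out by fluorescence polarization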
T7 sequence (P04608 whole entry): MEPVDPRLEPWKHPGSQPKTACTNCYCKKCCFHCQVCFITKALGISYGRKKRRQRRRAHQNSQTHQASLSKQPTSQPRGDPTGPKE

[18] = THP-1 cell cytotoxicity, dose response, cytotoxicity control for Vif-APOBEC3G degradation inhibitor project, THP-1 cells (AID 1117359); format: functional; details: Human immunodeficiency virus 1, THP-1
[19] = molecular target: T2, Mannose-6-phosphate isomerase; assay: inhibitors of human PMI, primary screen, biochemical, fluorescence intensity, coupled assay (AID 1209)
[20] = molecular target: T8, Calpain-2 catalytic subunit (Sus scrofa, UniProt P43367); assay: pig calpain II inhibitor potency, dose response, biochemical, fluorogenic peptide substrate (AID 1420); format: functional
T8 sequence (P43367 whole entry): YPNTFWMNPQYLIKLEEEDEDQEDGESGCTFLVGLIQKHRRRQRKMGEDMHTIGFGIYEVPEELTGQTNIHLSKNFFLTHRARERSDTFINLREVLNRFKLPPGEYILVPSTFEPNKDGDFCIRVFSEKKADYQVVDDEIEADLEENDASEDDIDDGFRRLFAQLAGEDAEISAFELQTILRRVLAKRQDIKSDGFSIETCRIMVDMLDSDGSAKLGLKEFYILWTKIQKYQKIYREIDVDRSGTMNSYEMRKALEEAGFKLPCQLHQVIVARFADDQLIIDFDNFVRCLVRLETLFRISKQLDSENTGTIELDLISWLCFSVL

[21] = Vero cell cytotoxicity, dose response, cytotoxicity control for Vif-APOBEC3G degradation inhibitor project, Vero cells (AID 1117358); format: functional; details: Human immunodeficiency virus 1, Vero

NS3, sequence (A3EZJ3 whole entry): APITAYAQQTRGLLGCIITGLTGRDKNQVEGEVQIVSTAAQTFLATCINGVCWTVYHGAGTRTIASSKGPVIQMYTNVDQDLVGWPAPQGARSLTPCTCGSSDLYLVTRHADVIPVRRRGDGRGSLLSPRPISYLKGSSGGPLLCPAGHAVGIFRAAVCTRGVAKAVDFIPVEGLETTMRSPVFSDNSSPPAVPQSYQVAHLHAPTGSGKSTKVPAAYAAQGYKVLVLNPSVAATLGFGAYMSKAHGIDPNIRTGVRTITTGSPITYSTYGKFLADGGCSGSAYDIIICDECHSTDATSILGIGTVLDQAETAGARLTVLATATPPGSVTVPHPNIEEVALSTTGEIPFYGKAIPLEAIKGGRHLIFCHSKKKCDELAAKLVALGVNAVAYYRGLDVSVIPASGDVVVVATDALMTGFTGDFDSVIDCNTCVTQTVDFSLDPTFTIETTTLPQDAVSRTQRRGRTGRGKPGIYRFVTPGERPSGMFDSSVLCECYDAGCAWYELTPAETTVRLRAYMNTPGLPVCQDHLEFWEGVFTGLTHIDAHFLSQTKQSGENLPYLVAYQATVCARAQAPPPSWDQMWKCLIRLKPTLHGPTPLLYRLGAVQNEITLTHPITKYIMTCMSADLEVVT
Large T antigen, sequence (P03070 whole entry): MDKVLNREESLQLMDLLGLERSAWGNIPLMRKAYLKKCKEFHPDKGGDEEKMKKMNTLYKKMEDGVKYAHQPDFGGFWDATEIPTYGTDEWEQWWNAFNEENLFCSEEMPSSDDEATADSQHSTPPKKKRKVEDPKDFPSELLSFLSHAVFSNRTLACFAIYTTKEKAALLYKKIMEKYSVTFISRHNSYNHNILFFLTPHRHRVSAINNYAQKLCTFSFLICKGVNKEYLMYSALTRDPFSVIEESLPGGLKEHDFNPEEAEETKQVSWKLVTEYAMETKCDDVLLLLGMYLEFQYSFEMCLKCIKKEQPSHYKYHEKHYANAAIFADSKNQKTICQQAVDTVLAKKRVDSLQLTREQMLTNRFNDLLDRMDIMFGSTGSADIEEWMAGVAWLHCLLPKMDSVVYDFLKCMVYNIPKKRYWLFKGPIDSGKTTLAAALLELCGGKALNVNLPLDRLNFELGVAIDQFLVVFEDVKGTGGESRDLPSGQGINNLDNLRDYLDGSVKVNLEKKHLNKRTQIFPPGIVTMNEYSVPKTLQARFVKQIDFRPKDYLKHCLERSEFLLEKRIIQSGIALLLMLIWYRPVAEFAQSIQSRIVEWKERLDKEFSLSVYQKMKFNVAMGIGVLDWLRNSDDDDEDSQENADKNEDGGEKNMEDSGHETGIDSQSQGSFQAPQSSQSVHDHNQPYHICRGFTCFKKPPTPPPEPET
DNA dC->dU-editing enzyme APOBEC-3G, sequence (Q9HC16 whole entry): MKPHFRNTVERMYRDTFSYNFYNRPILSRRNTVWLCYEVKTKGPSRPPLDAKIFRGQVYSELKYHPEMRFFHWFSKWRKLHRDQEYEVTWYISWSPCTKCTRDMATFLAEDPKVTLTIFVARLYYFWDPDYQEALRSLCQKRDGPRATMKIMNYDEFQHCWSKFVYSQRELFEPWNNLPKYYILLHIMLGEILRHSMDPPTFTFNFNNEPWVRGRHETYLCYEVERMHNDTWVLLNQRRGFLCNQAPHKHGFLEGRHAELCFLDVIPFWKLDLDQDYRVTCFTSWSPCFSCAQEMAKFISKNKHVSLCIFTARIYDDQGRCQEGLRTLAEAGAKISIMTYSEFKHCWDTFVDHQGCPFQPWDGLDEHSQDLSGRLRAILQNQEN
Genome polyprotein, sequence (Q2Q167 whole entry): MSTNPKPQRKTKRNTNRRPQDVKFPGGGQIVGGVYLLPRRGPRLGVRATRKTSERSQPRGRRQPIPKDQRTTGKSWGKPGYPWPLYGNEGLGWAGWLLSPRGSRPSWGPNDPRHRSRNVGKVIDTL
E3 ubiquitin-protein ligase Mdm2, sequence (Q00987 whole entry): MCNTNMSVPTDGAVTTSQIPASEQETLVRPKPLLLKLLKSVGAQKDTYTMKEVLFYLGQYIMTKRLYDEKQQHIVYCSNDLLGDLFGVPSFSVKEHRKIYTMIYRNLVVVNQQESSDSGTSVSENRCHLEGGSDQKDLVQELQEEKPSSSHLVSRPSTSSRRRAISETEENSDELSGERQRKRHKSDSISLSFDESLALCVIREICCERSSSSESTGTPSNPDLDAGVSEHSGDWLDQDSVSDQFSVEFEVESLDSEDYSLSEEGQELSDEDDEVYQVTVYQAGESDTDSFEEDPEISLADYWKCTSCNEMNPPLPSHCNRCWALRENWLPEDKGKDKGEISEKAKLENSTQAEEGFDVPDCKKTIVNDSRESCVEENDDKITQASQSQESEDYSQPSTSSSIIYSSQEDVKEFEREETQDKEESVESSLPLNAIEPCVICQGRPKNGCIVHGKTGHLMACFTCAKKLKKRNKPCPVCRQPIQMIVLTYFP

In the case of `CC(C)CC(=O)/C=C/n1c(=S)oc2ccccc21`, the EC50 [1] is reported as 1.2 µM (active) and the AC50 [2] is reported as 10.5 µM (active).

With `CCOc1ccc(N2C(=O)C3Sc4nc(O)sc4C(/C=C/c4ccccc4)C3C2=O)cc1` (stereo not given) the IC50 [3] was 15.4 µM (not active) and the IC50 [4] was 0.3 µM (active).

For `O=[N+]([O-])c1ccc2c(c1)nc(S)n2-c1ccccc1`, the EC50 [5] was > 150 µM (inactive), the EC50 [6] was 2.85 µM (active) and the IC50 [7] was 39.6 µM (active). The IC50 [8] was 9.42 µM (active).

For `CCC1(CC)NC(=O)N(CC(=O)Nc2sc3c(c2C(N)=O)CCC3)C1=O`, the IC50 [9] was > 49.8 µM (not active), the IC50 [10] was < 1.56 µM (active) and the AC50 [11] was 32.9 µM (active). The IC50 [12] was 3.98 µM (active).

In the case of `Oc1ccc(/N=C/c2ccc(O)c(O)c2)cc1`, the IC50 [13] is reported as 20.6061 µM, the IC50 [14] is reported as 9.16 µM (active) and the AC50 [15] is reported as 10.5 µM (inconclusive). The EC50 [16] was > 380 µM (inconclusive), the IC50 [17] was 15 µM (inconclusive) and the CC50 [18] was 22.2 µM (active).

For `CCOc1cc(CNc2ccc(O)cc2)ccc1OCc1ccc(Cl)cc1Cl`, the IC50 [19] was > 50 µM (not active), the IC50 [20] was 7.31 µM (not active) and the AC50 [15] was > 380 µM (inconclusive). For the same compound, the EC50 [16] was 331 µM (active), the IC50 [17] was 34 µM (inconclusive) and the CC50 [18] was 13.9 µM (active). For the same compound, the CC50 [21] was > 40 µM (active).
